{
  "source": "patent US20020169264A1",
  "about": "“Polymers incorporating peptides” (The Council of the Queensland Institute of Medical Research, priority 1997, published 2002)",
  "key": {"[1]": {"system": "virus infected P815 mastocytoma cells", "type": "in vivo, BALB/c mice"}, "lymph node T cells": {"system": "lymph node T cells", "assay": "T cell proliferation assay, peptide monomer-primed lymph node T cells", "type": "cell-based, mice", "conditions": "FIG. 10", "text": "Lymph node T cells were derived from pooled inguinal and popliteal lymph node cell suspensions of mice primed seven days previously with peptide. T cells were enriched by passage through nylon wool columns^24.\n(§1) Female Balb/c mice, 6 to 8 weeks of age, were used. For antibody studies, animals were inoculated i.p. with synthetic peptide in monomeric or polymeric form and emulsified in complete Freund's adjuvant (CFA). Mice received 5 or 0.5 nmoles of monomeric peptide or the equivalent number of moles of determinant within a polymer. For T-cell studies, mice were inoculated s.c. in the hind footpads with a total of 10 nmoles of T-cell determinant in CFA.\nT cells were cultured (at a concentration of 3×10^5 cells/well for lymph node T cells and 1×10^4/well for the T-cell clone) in 96-well nmicrotitre trays (Nunc, Denmark) in the presence of syngenic γ-irradiated (2,200 R, ^60Co source) spleen cells as a source of antigen presenting cells, together with antigen in a total volume of 250μl^22, 23, The culture medium was RPMI 1640 supplemented with 10% heat inactivated (56° C., 30min) fetal calf serum, 2mM glutamine, 2mM sodium pyruvate, 0.1mM 2-mercaptoethanol, 30μg/ml gentamicin, 100 I.U./ml penicillin and 100μg/ml streptomycin. […] Cells were then harvested onto glass fibre filters and incorporation of ^3H-thymidine was measured on a Hewlett Packard Matrix 9600 direct β-counter."}, "Balb/c mice": {"system": "Balb/c mice", "assay": "Immunogenicity in Balb/c mice, antibody titre by ELISA", "type": "in vivo", "conditions": "for antibody response (levels of antibody elicited): 0.5 nmole dose, FIG. 11B", "text": "as §1\nEnzyme-linked immunosorbent assays (ELISAs) were performed as described^23 using microtitre plates coated with a solution of 5μg/ml peptide or polymer antigen. Bound antibody was detected by incubation with horseradish peroxidase-conjugated rabbit immunoglobulin (Ig) directed against mouse Ig (DAKO, Denmark) for 1.5h followed, after washing, with substrate (0.2mM 2,2′-azino-bis 3-ethylbenzthiazoline-sulphonic acid in 50mM citric acid pH4.0 containing 0.004% v/v hydrogen peroxide). The absorbance at a wavelength of 405nm was determined using a Labsystems Multiscan Multisoft microplate reader (Pathtech Diagnostics Pty. Ltd., Aust.) and antibody titres were expressed as the reciprocal of the antibody dilution giving an absorbance of 0.25, which corresponds to at least five times the background value."}, "MAb 2/1": {"system": "MAb 2/1", "assay": "ELISA, MAb 2/1 binding to coated peptide or polymer", "parameters": "species or system mouse"}, "MAb 1/1": {"system": "MAb 1/1", "assay": "ELISA, MAb 1/1 binding to coated peptide or polymer", "parameters": "species or system mouse", "conditions": "persulphate to peptide ratios 0.1:1 to 1,000:1, in the presence of acrylamide; FIG. 8"}},
  "note": "Like-named read-outs stand apart in the source and are kept apart here. Where no end group is shown, it is not given here. The star is where a group is joined. Acryloyl = C=CC(=O)*; Ahx = NCCCCCC(=O)O",
  "data": [
    {"substance": "TYQRTRALV [P7]", "values": [
      {"measurement": "CTL response (priming)", "setting": "[1]; mouse, in vivo, sc", "value": "did"}
    ]},
    {"substance": "ALNNRFQIKGVELKS [P3]", "values": [
      {"measurement": "recognition by polyclonal lymph node T cells raised against monomeric T-cell determinant peptide", "setting": "lymph node T cells", "value": "equal efficiency"}
    ]},
    {"substance": "acryloyl-Ahx-CTL: acryloyl-Ahx derivative of the CTL epitope TYQRTRALV, not polymerised ({Acryloyl-Ahx}-TYQRTRALV)", "values": [
      {"measurement": "CTL response (priming)", "setting": "[1]; 10 μg peptide s.c. in CFA, virus infected targets, FIG. 15", "value": "did not induce a CTL response"}
    ]},
    {"substance": "TLKLATG [P1]", "values": [
      {"measurement": "antibody response (levels of antibody elicited)", "setting": "Balb/c mice", "value": "no antibody"},
      {"measurement": "binding of MAb 2/1 to coated polymers", "setting": "MAb 2/1; FIG. 9", "value": "slightly reduced ability to interact with MAb"}
    ]},
    {"substance": "GMRNVPERKQT [P2]", "values": [
      {"measurement": "antibody response (levels of antibody elicited)", "setting": "Balb/c mice", "value": "no antibody"}
    ]},
    {"substance": "PKYVKQNTLKLATGMRNVPEKQT [P5]", "values": [
      {"measurement": "primary antibody response", "setting": "Balb/c mice; 5 nmoles of peptide epitope, i.p. in CFA", "value": "very weak"},
      {"measurement": "rise of antibody response following the second inoculation", "setting": "Balb/c mice; 5 nmoles of peptide epitope, secondary vs primary", "value": "~10", "unit": "fold"},
      {"measurement": "antigenic activity (MAb 2/1 binding) after exposure to ammonium persulphate", "setting": "MAb 2/1; persulphate to peptide ratios 0.1:1 to 1,000:1, in the presence of acrylamide, FIG. 8", "value": "little or no effect on antigenic activity"},
      {"measurement": "antigenic activity (MAb 1/1 binding) after exposure to ammonium persulphate", "setting": "MAb 1/1", "value": "little or no effect on antigenic activity"}
    ]}
  ]
}
